These results are taken from patent publication US11178871B2, “Herbicidal pyrimidine compounds” (BASF SE, priority 2016, dated 2021).

What all share (type): in vivo
The test system of one assay is Amaranthus retroflexus. The experiment in a line: greenhouse test, post-emergence treatment, AMARE. An excerpt: (§1) The culture containers used were plastic flowerpots containing loamy sand with approximately 3.0% of humus as the substrate. The seeds of the test plants were sown separately for each species.
(§2) For the post-emergence treatment, the test plants were first grown to a height of 3 to 15 cm, depending on the plant habit, and only then treated with the active ingredients which had been suspended or emulsified in water. For this purpose, the test plants were either sown directly and grown in the same containers, or they were first grown separately as seedlings and transplanted into the test containers a few days prior to treatment.
(§3) Depending on the species, the plants were kept at 10-25° C. or 20-35° C., respectively.
(§4) The test period extended over 2 to 4 weeks. During this time, the plants were tended, and their response to the individual treatments was evaluated.
(§5) Evaluation was carried out using a scale from 0 to 100. 100 means no emergence of the plants, or complete destruction of at least the aerial moieties, and 0 means no damage, or normal course of growth. A good herbicidal activity is given at values of at least 70 and a very good herbicidal activity is given at values of at least 85.
(§6) The plants used in the greenhouse experiments were of the following species: […]

Assay [1] relates to Echinocloa crus-galli. The experiment in a line: greenhouse test, post-emergence treatment, ECHCG. Particulars: post-emergence. The method in brief:
(§7)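 Post-emergence greenhouse herbicide test: plants at 3–15 cm sprayed with aqueous formulation of compound, then evaluated on a 0–100 damage scale after 2–4 weeks.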

The subject of another assay is Avena fatua. The experiment in a line: greenhouse test, post-emergence treatment, AVEFA.
Text: as §1, §2, §3, §4, §5, §6

Another assay has as its system Apera spica-venti. The experiment in a line: greenhouse test, pre-emergence treatment, APESV. Summed up:
(§8)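 Damage scored visually on a 0-100 scale (100 = no emergence or complete destruction of aerial parts, 0 = normal growth) after 2 to 4 weeks. Treatment was applied pre-emergence as an aqueous suspension or emulsion immediately after sowing in loamy sand (approx. 3.0% humus).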

For another assay, the system named is Alopecurus myosuroides. The experiment in a line: greenhouse test, post-emergence treatment, ALOMY. Particulars: post-emergence. Summed up:
as §7

The subject of assay [2] is Echinocloa crus-galli. The experiment in a line: greenhouse test, pre-emergence treatment, ECHCG. Summed up: as §8

`OC1(c2nc(C3CC3)ncc2-c2ccccc2Cl)CCCC1` [Ex. 127]: in the assay on Amaranthus retroflexus (2000 g/ha), the herbicidal activity result was “very good (a very good herbicidal activity is given at values of at least 85)”.
With `COC(=O)CCc1nc(C2CC2)ncc1-c1ccccc1Cl` [Ex. 132], the herbicidal activity entry in the assay on Amaranthus retroflexus (2000 g/ha) is “good (A good herbicidal activity is given at values of at least 70)”; in the assay with Echinocloa crus-galli [1] (2000 g/ha), “very good (a very good herbicidal activity is given at values of at least 85)”.
As for `OC1(Cc2nc(C3CC3)ncc2-c2ccccc2Cl)CCC1` [Ex. 65], the herbicidal activity entry with Amaranthus retroflexus (2000 g/ha) and in the assay on Echinocloa crus-galli [1] (2000 g/ha) was “very good (a very good herbicidal activity is given at values of at least 85)” throughout.
Take `Cc1occc1-c1nc(C2CC2)ncc1-c1ccccc1Br` [Ex. 238]: the herbicidal activity result in the assay with Amaranthus retroflexus (2000 g/ha) and in the assay with Echinocloa crus-galli [1] (2000 g/ha) was “very good (a very good herbicidal activity is given at values of at least 85)” throughout.
Turning to `CCOC(=O)Cc1nc(OC)ncc1-c1ccccc1Cl` [Ex. 226], in the assay with Amaranthus retroflexus (500 g/ha), the herbicidal activity result was “very good (a very good herbicidal activity is given at values of at least 85)”.
`Clc1ccccc1-c1cnc(C2CC2)nc1/C=C/c1c(Cl)ccc(Cl)c1Cl` [Ex. 232]: the herbicidal activity result with Amaranthus retroflexus (2000 g/ha) is reported as “very good (a very good herbicidal activity is given at values of at least 85)”.
On to `OCCc1nc(C2CC2)ncc1-c1ccccc1Cl` [Ex. 255], for which the herbicidal activity entry in the assay with Amaranthus retroflexus (500 g/ha) was “good (A good herbicidal activity is given at values of at least 70)”.
As to `Brc1ccccc1-c1cnc(C2CC2)nc1-c1csc2ccccc12` [Ex. 47], the herbicidal activity result in the assay with Amaranthus retroflexus (1000 g/ha) is “very good (a very good herbicidal activity is given at values of at least 85)”.
With `CCc1nc(C)c(-c2nc(C3CC3)ncc2-c2ccccc2Br)o1` [Ex. 290], the herbicidal activity result in the assay on Avena fatua (2000 g/ha), in the assay with Apera spica-venti (2000 g/ha), with Alopecurus myosuroides (2000 g/ha), in the assay with Echinocloa crus-galli [1] (2000 g/ha) and in the assay on Echinocloa crus-galli [2] (2000 g/ha) was “very good (a very good herbicidal activity is given at values of at least 85)” each time.
As to `O=C(O)/C=C/c1nc(C2CC2)ncc1-c1ccccc1Cl` [Ex. 131], the herbicidal activity entry in the assay on Amaranthus retroflexus (2000 g/ha) and with Echinocloa crus-galli [1] (2000 g/ha) was “very good (a very good herbicidal activity is given at values of at least 85)” throughout.
Turning to `Cc1ncoc1-c1nc(C2CC2)ncc1-c1cc(C(F)(F)F)ccc1Br` [Ex. 263], the herbicidal activity result with Avena fatua (1000 g/ha), with Apera spica-venti (1000 g/ha), in the assay with Alopecurus myosuroides (1000 g/ha), in the assay with Echinocloa crus-galli [1] (1000 g/ha) and in the assay on Echinocloa crus-galli [2] (1000 g/ha) was “very good (a very good herbicidal activity is given at values of at least 85)” throughout.
Regarding `OC(Cc1nc(C2CC2)ncc1-c1ccccc1Cl)c1ccco1` (stereo not drawn) [Ex. 106], the herbicidal activity result in the assay on Avena fatua (2000 g/ha), in the assay with Apera spica-venti (2000 g/ha), in the assay with Alopecurus myosuroides (2000 g/ha), in the assay with Echinocloa crus-galli [1] (2000 g/ha) and with Echinocloa crus-galli [2] (2000 g/ha) was “very good (a very good herbicidal activity is given at values of at least 85)” in each case.
In the case of `Cc1nc(C)c(-c2nc(C3CC3)ncc2-c2ccccc2Cl)o1` [Ex. 243], the herbicidal activity entry in the assay on Avena fatua (1000 g/ha), in the assay with Apera spica-venti (1000 g/ha), with Alopecurus myosuroides (1000 g/ha), with Echinocloa crus-galli [1] (1000 g/ha) and in the assay with Echinocloa crus-galli [2] (1000 g/ha) was “very good (a very good herbicidal activity is given at values of at least 85)” throughout.
For `Brc1ccccc1-c1cnc(C2CC2)nc1-c1cnco1` [Ex. 261], the herbicidal activity entry in the assay on Avena fatua (1000 g/ha), in the assay with Apera spica-venti (1000 g/ha), in the assay with Alopecurus myosuroides (1000 g/ha), with Echinocloa crus-galli [1] (1000 g/ha) and in the assay on Echinocloa crus-galli [2] (1000 g/ha) was “very good (a very good herbicidal activity is given at values of at least 85)” throughout.
Consider `Clc1ccccc1-c1cnc(C2CC2)nc1C=C1CCC1` [Ex. 71], for which the herbicidal activity entry in the assay with Avena fatua (2000 g/ha) is “very good (a very good herbicidal activity is given at values of at least 85)”; in the assay on Apera spica-venti (2000 g/ha), “very good (a very good herbicidal activity is given at values of at least 85)”; in the assay on Alopecurus myosuroides (2000 g/ha), “very good (a very good herbicidal activity is given at values of at least 85)”; in the assay with Echinocloa crus-galli [1] (2000 g/ha), “good (A good herbicidal activity is given at values of at least 70)”; with Echinocloa crus-galli [2] (2000 g/ha), “very good (a very good herbicidal activity is given at values of at least 85)”.
Take `OC(c1nc(C2CC2)ncc1-c1ccccc1Cl)C1(O)CCC1` (stereo not drawn) [Ex. 154]: the herbicidal activity entry with Avena fatua (2000 g/ha), in the assay with Apera spica-venti (2000 g/ha), with Alopecurus myosuroides (2000 g/ha), in the assay on Echinocloa crus-galli [1] (2000 g/ha) and in the assay with Echinocloa crus-galli [2] (2000 g/ha) was “very good (a very good herbicidal activity is given at values of at least 85)” in each case.
On to `Clc1ccccc1-c1cnc(C2CC2)nc1-c1cncs1` [Ex. 245], for which the herbicidal activity result is reported as “very good (a very good herbicidal activity is given at values of at least 85)” in the assay on Avena fatua (1000 g/ha); “very good (a very good herbicidal activity is given at values of at least 85)” with Apera spica-venti (1000 g/ha); “very good (a very good herbicidal activity is given at values of at least 85)” in the assay on Alopecurus myosuroides (1000 g/ha); “very good (a very good herbicidal activity is given at values of at least 85)” with Echinocloa crus-galli [1] (1000 g/ha); “good (A good herbicidal activity is given at values of at least 70)” in the assay with Echinocloa crus-galli [2] (1000 g/ha).
Turning to `COc1ccc(-c2nc(C3CC3)ncc2-c2ccccc2Cl)cc1` [Ex. 164], in the assay with Amaranthus retroflexus (2000 g/ha), the herbicidal activity entry was “very good (a very good herbicidal activity is given at values of at least 85)”.
